In brackets after ≈: the same amount, converted by molar mass.
What was measured:
[1] = biological target: T1, human erythrocyte acetylcholinesterase (AChE, EC 3.1.1.7) (Homo sapiens, UniProt P22303); assay: Inhibition of human erythrocyte acetylcholinesterase (Ellman assay); type: biochemical; details: read-out: Inhibition % at 20 µM, Human AChE
T1 construct: human erythrocyte acetylcholinesterase (AChE, EC 3.1.1.7); purchased Sigma-Aldrich (Saint Louis, MO, USA); host or cells: human erythrocytes
T1 sequence (P22303 32-617 isoform P22303-2 limits assumed): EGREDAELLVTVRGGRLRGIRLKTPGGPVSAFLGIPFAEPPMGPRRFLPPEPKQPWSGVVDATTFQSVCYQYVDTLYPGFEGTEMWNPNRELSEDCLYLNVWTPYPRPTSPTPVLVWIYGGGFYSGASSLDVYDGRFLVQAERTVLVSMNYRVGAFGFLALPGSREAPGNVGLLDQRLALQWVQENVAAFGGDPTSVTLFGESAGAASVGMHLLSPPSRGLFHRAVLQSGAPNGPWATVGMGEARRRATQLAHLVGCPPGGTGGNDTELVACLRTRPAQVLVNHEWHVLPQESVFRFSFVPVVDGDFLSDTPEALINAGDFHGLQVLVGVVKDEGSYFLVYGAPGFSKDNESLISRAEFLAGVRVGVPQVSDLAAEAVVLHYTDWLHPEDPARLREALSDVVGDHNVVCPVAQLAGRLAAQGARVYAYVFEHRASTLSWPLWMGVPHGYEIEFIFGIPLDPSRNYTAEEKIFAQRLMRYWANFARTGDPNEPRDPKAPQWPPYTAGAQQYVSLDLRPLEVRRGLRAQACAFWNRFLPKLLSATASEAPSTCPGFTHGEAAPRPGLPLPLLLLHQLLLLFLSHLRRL
In short: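 Colorimetric Ellman read-out with acetylthiocholine iodide substrate and DTNB, under standard reversible-inhibitor conditions, 2% (v/v) final DMSO. Enzyme-free blanks corrected for non-enzymatic hydrolysis; triplicate runs, IC50 from regression plots.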

[2] = biological target: T2, porcine liver carboxylesterase (CES, EC 3.1.1.1) (Sus scrofa, UniProt Q29550); assay: Porcine liver CES inhibition kinetics (Lineweaver-Burk); type: biochemical; details: mixed type inhibition; mean ± SEM
T2 sequence (Q29550 19-566): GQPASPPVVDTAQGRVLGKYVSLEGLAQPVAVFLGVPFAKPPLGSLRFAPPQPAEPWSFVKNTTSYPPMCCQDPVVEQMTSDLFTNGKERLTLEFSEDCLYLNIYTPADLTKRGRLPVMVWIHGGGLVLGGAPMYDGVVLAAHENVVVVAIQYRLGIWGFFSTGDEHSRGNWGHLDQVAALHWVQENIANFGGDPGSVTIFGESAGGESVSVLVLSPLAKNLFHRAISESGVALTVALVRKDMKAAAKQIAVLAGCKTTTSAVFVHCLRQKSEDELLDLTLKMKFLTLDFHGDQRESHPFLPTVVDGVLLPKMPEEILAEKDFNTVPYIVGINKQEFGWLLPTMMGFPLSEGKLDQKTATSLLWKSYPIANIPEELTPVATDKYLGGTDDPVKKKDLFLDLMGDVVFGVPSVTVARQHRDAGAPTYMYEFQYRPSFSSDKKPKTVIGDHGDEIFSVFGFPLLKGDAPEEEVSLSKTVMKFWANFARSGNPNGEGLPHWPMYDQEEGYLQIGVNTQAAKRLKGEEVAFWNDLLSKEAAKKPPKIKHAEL
Protocol: To elucidate the inhibition mechanisms for active compounds, porcine liver CES residual activities were determined in the presence of 3 increasing concentrations of a test compound and 5–6 decreasing concentrations of the substrates. Test compounds were incubated with the enzymes at 25 °C for 5 min, followed by the addition of substrates. A parallel control was made for an assay of the rate of hydrolysis of the same concentrations of substrates in solutions with no inhibitor. Linear regression of 1/V versus 1/[S] double-reciprocal (Lineweaver-Burk) plots was used to determine the inhibition constants for the competitive component (Ki) and noncompetitive component (αKi).
(§1) Measurements were performed in a Bio-Rad Benchmark Plus microplate reader. Each experiment was performed in triplicate. Plots, linear regressions and values of IC50, were determined using Origin 6.1 for Windows, OriginLab (Northampton, MA, USA). Results were calculated using GraphPad Prism version 6.05 for Windows, GraphPad Software (La Jolla, CA, USA) and presented as mean ± SEM.

[3] = Oxygen radical absorbance capacity (ORAC-FL) assay; details: n.a. = inactive; i.t.s. = interferes with test system
In short: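 Fluorescein oxidative degradation by the peroxyl radical generator AAPH is monitored in the presence of test compound, a HAT-based read-out. Activity is expressed relative to Trolox as reference antioxidant.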

[4] = biological target: T2, porcine liver carboxylesterase (CES, EC 3.1.1.1); assay: Inhibition of porcine liver carboxylesterase (4-NPA colorimetric assay); type: biochemical; details: 20 µM; n.a. = inactive at 20 µM; mean ± SEM, n = 3
Source text: The following enzymes were purchased from Sigma-Aldrich (Saint Louis, MO, USA): porcine liver carboxylesterase (CES, EC 3.1.1.1), human erythrocyte acetylcholinesterase (AChE, EC 3.1.1.7) and equine serum butyrylcholinesterase (BChE, EC 3.1.1.8). Substrates for CES, AChE and BChE were 4-nitrophenyl acetate (4-NPA), acetylthiocholine iodide (ATCh) and butyrylthiocholine iodide (BTCh), respectively, and the colorimetric reagent for the AChE and BChE assays was 5,5’-dithio-bis-(2-nitrobenzoic acid) (DTNB) (Sigma-Aldrich). All the kinetic experiments were performed under standard conditions, according to the protocol of IPAC RAS for a reversible inhibitors study.
The CES (porcine liver) activity was assessed colorimetrically in 0.1 M K/Na phosphate buffer pH 8.0, 25 °C, by measuring the absorbance of 4-nitrophenol at 405 nm. Final enzyme and substrate (4-NPA) concentrations were 0.02 unit/mL and 1 mM, respectively. Reagent blanks included all constituents except enzyme.
Test compounds were dissolved in DMSO. Reaction mixtures contained a final DMSO concentration of 2% (v/v). Enzyme inhibition was first assessed at a single concentration of 20 µM for each compound after a 5 min incubation at 25 °C in three separate experiments. […] Substrate was then added and residual enzyme activity relative to an inhibitor-free control was measured using a Bio-Rad Benchmark Plus microplate reader (Marnes-la-Coquette, France).
as §1

HeLa tumor cell line = assay: Cytotoxicity against HeLa cells (MTT assay); type: cell-based, human; details: for IC50: Homo sapiens, HeLa, 72 h, MTT, n.a. = inactive, read-out: IC50, HeLa; for Selectivity Index (SI): ratio of average IC50 in normal fibroblasts to average IC50 for HeLa
Protocol: (§2) Cytotoxicity of compounds was evaluated using a culture of human dermal fibroblasts, which were isolated in the Laboratory of Cell Cultures of the Institute of Medical Cell Technologies, Ekaterinburg, Russia and a HeLa tumor cell line obtained at the shared research facility «Vertebrate cell culture collection» of the Institute of Cytology of the Russian Academy of Sciences, St. Petersburg, Russia. Cells were seeded in 96-well plates in the inoculum dose of 2 × 10^5 cells/mL and cultured for 24 h in DMEM, with 1% glutamine in the presence of 10% fetal bovine serum and gentamicin (50 mg/L) at 37 °C, with humidified atmosphere of 5% CO2. Then compounds, which were dissolved in DMSO, were added to the wells at the final concentrations of 10^–7, 10^–6, 10^–5 and 10^–4 M. The cells were incubated with compounds for 72 h, after which cell viability was assessed using the standard MTT assay. The assay was carried out in four replicates with negative (culture medium), positive (solution of the cytotoxic drug camptothecin at a concentration of 3 mM) controls and the solvent control (DMSO). The results of the MTT assay were evaluated on a Tecan Infinite M200 PRO (Tecan Austria GmbH, Grödig, Austria) plate spectrophotometer by comparing the optical density of a formazan solution at 570 nm in the assay and control wells. The half maximal inhibitory concentrations (IC50) were calculated by AAT Bioquest-calculator (https://www.aatbio.com/tools/ic50-calculator (accessed on 14 November 2022)).

human dermal fibroblasts = assay: Cytotoxicity against human dermal fibroblasts (MTT assay); type: cell-based; details: Fibroblast, 72 h, MTT, n.a. = inactive, read-out: IC50, Human Dermal Fibroblasts
Protocol: as §2

[5] = test system: Candida albicans RCPF Y 401/NCTC 885/653; assay: Antifungal susceptibility testing, C. albicans; details: NCTC885, read-out: MIC for fungi strains inhibition, C. albicans
Source text: The solvent was DMSO. […] In each test, a growth control and a sterility control were used.

| SMILES | inhibition at 20 µM [1] [%] | αKi (non-competitive inhibition constant), CES [2] [µM] | ORAC-FL (TE, antioxidant activity in Trolox equivalents) [3] | inhibition at 20 µM [4] [%] | IC50 (HeLa tumor cell line) [µM] | Selectivity Index (SI) (HeLa tumor cell line) | IC50 (human dermal fibroblasts) [µM] | MIC [5] [µg/mL] |
| --- | --- | --- | --- | --- | --- | --- | --- | --- |
| O=C1NN=C(C(F)(F)F)/C1=N/Nc1ccccc1 [5a, (Z)-4-(2-Phenylhydrazinylidene)-5-(trifluoromethyl)-2,4-dihydro-3H-pyrazol-3-one] | 12.8 ± 2.3 | 0.255 ± 0.013 | 2.30 ± 0.20 |  |  |  |  |  |
| Cc1ccc(N/N=C2\C(=O)NN=C2C(F)(F)F)cc1 [5b, (4Z)-4-[2-(4-Methylphenyl)hydrazinylidene]-5-(trifluoromethyl)-2,4-dihydro-3H-pyrazol-3-one] |  |  | 2.37 ± 0.32 | 10.1 ± 1.7 | 2.26 ± 0.14 | 3.62 | 8.18 ± 0.73 | 200 (≈ 740 µM) |
| O=C1NN=C(C(F)(F)F)/C1=N/Nc1ccc(Br)cc1 [5c, (4Z)-4-[2-(4-Bromophenyl)hydrazinylidene]-5-(trifluoromethyl)-2,4-dihydro-3H-pyrazol-3-one] | 3.4 ± 0.6 |  | 1.73 ± 0.21 | 5.5 ± 0.9 |  |  |  | > 200 |
| Cc1ccc(N/N=C2\C(=O)N(C)N=C2C(F)(F)F)cc1 [5d, (4Z)-2-Methyl-4-[2-(4-methylphenyl)hydrazinylidene]-5-(trifluoromethyl)-2,4-dihydro-3H-pyrazol-3-one] | 4.5 ± 1.1 | 3.98 ± 0.31 | 1.27 ± 0.15 |  |  |  |  | > 200 |
| Cc1ccc(N/N=C2\C(=O)N(c3ccccc3)N=C2C(F)(F)F)cc1 [5f, (4Z)-4-[2-(4-Methylphenyl)hydrazinylidene]-2-phenyl-5-(trifluoromethyl)-2,4-dihydro-3H-pyrazol-3-one] |  | 0.735 ± 0.007 | i.t.s. |  | 4.49 ± 0.18 | 4.56 | 20.5 ± 2.52 | 200 (≈ 578 µM) |
| CS(=O)(=O)c1ccc(N/N=C2\C(=O)N(c3ccccc3)N=C2C(F)(F)F)cc1 [5m, (4Z)-4-(2-[4-(Methylsulfonyl)phenyl]hydrazinylidene)-2-phenyl-5-(trifluoromethyl)-2,4-dihydro-3H-pyrazol-3-one] | 5.5 ± 0.5 |  | i.t.s. | 20.4 ± 1.6 |  |  |  | > 200 |
| Cc1ccc(N/N=C2\C(=O)N(c3ccc(S(N)(=O)=O)cc3)N=C2C(F)(F)F)cc1 [5p, (4Z)-2-[4-(Aminosulfonyl)phenyl]-4-[2-(4-methylphenyl)hydrazinylidene]-5-(trifluoromethyl)-2,4-dihydro-3H-pyrazol-3-one] |  |  | i.t.s. | 5.7 ± 1 |  |  |  | > 200 |
| Cc1ccc(N/N=C2\C(=O)NN=C2C(F)(F)C(F)(F)F)cc1 [6a, (4Z)-4-[2-(4-Methylphenyl)hydrazinylidene]-5-(pentafluoroethyl)-2,4-dihydro-3H-pyrazol-3-one] |  |  | 2.67 ± 0.29 | 7.8 ± 1.4 | 1.47 ± 0.13 | 8.83 | 13 ± 2.56 |  |
| Cc1ccc(N/N=C2\C(=O)N(c3ccccc3)N=C2C(F)(F)C(F)(F)F)cc1 [6b, (4Z)-4-[2-(4-Methylphenyl)hydrazinylidene]-5-(pentafluoroethyl)-2-phenyl-2,4-dihydro-3H-pyrazol-3-one] | 8.3 ± 1.4 |  |  |  | 65.9 ± 5.22 | 1.49 | 98.6 ± 6.32 |  |
| Cc1ccc(N/N=C2\C(=O)NN=C2C(F)(F)C(F)(F)C(F)(F)F)cc1 [7a, (4Z)-5-(Heptafluoropropyl)-4-[2-(4-methylphenyl)hydrazinylidene]-2,4-dihydro-3H-pyrazol-3-one] | 35.6 ± 0.8 |  | 2.80 ± 0.01 | 9.9 ± 0.7 |  |  |  | > 200 |
| Cc1ccc(N/N=C2\C(=O)N(c3ccccc3)N=C2C(F)(F)C(F)(F)C(F)(F)F)cc1 [7b, (4Z)-5-(Heptafluoropropyl)-4-[2-(4-methylphenyl)hydrazinylidene]-2-phenyl-2,4-dihydro-3H-pyrazol-3-one] | 12.6 ± 1.8 |  |  |  | 59.7 ± 6.34 | 1.24 | 73.8 ± 5.32 |  |
| CC1=NNC(=O)/C1=N\Nc1ccc(C)cc1 [9a, (4Z)-5-Methyl-4-[2-(4-methylphenyl)hydrazinylidene]-2,4-dihydro-3H-pyrazol-3-one] |  |  | 3.23 ± 0.50 |  | 3.16 ± 0.25 | 7.68 | 24.3 ± 1.82 |  |
| CC1=NN(c2ccccc2)C(=O)/C1=N\Nc1ccc(C)cc1 [9b, (4Z)-5-Methyl-4-[2-(4-methylphenyl)hydrazinylidene]-2-phenyl-2,4-dihydro-3H-pyrazol-3-one] |  |  | 2.67 ± 0.58 | 10.3 ± 2.4 | 46.5 ± 1.98 | 0.52 | 24.1 ± 3.21 | > 200 |
